What all share (format): in vivo
In one data set the test system is gut microbiome of mice. Description: Faecal microbiome diversity (beta and alpha diversity) in mice. To be noted: faecal samples, two weeks on diet 50 mg/kg iron. Here is the method: (§1) Thirty C57BL/6 male mice at four weeks of age were subjected to an iron deficient diet (based on the AIN-93G rodent diet, ˜1 mg kg of iron). All mice were bred in the same environment (QIMR Berghofer Animal Facility) to minimise the inherent variability in the microbiome between individual mice.
(§2) At six weeks of age (i.e. two weeks with an iron deficient diet), faeces were collected for microbiome analysis. This was the control sample for each mouse and it represents the basic microbiome of that particular animal when the lumen is iron deficient. […]
Faecal samples were then collected from each mouse at eight weeks of age (i.e. two weeks with diets containing iron), the mice sacrificed and the tissues collected for analysis. […] Haematological parameters were evaluated immediately after euthanasia using a “Coulter Ac-T diff Hematology Analyzer” (Beckman Coulter, Gladesville, NSW, Australia). Serum iron parameters, analysed using the Iron/TIBC Reagent Kit (Pointe Scientific, Canton, MI), and iron levels in tissues were determined as described above [Frazer, D. M., et al. Cell Mol Gastroenterol Hepatol 3, 410-421 (2017)]. […] DNA was extracted from the faecal samples and the microbial profile (QIMR Berghofer Medical Research Institute) was determined.

Another data set deals with Bacteroidota. Description: Faecal microbiome changes at phylum level: Bacteroidota. The following applies: faecal samples, mice, two weeks on diet 50 mg/kg iron vs baseline (FIG. 5). Here is the method: as §1, §2
(§3) Faecal samples were then collected from each mouse at eight weeks of age (i.e. two weeks with diets containing iron), the mice sacrificed and the tissues collected for analysis. […] Haematological parameters were evaluated immediately after euthanasia using a “Coulter Ac-T diff Hematology Analyzer” (Beckman Coulter, Gladesville, NSW, Australia). Serum iron parameters, analysed using the Iron/TIBC Reagent Kit (Pointe Scientific, Canton, MI), and iron levels in tissues were determined as described above [Frazer, D. M., et al. Cell Mol Gastroenterol Hepatol 3, 410-421 (2017)]. […] DNA was extracted from the faecal samples and the microbial profile (QIMR Berghofer Medical Research Institute) was determined. […]

Data set [1] deals with Lachnospiraceae spp, Rikenellaceae RC9, Faecalibaculum, Colidextribacter, Oscillibacter, Parasutterella, Lactobacillus. Description: Faecal microbiome changes at Amplicon Single Variant (ASV)/genus level. The following applies: faecal samples, mice, two weeks on diet 50 mg/kg iron vs baseline (FIG. 6G). Here is the method:
as §1, §2, §3

A short description of data set [2]: Body weight of mice on iron diets. To be noted: C57BL/6 male mice, diet 50 mg/kg iron for two weeks; comparison of ID, FS and SI groups (FIG. 1A). Here is the method: as §1
(§4) After faecal collection at six weeks of age, mice were switched from an iron deficient diet to a diet containing 50 mg/kg of iron such as ferrous sulfate (iron (II) sulfate) or Sucrosomial® iron (ten mice per group).
The remaining ten mice were a control group that remained on the deficient diet.
Faecal samples were then collected from each mouse at eight weeks of age (i.e. two weeks with diets containing iron), the mice sacrificed and the tissues collected for analysis. Liver and serum samples were collected from each animal after euthanasia and stored at −80° C. Haematological parameters were evaluated immediately after euthanasia using a “Coulter Ac-T diff Hematology Analyzer” (Beckman Coulter, Gladesville, NSW, Australia). Serum iron parameters, analysed using the Iron/TIBC Reagent Kit (Pointe Scientific, Canton, MI), and iron levels in tissues were determined as described above [Frazer, D. M., et al. Cell Mol Gastroenterol Hepatol 3, 410-421 (2017)]. […] DNA was extracted from the faecal samples and the microbial profile (QIMR Berghofer Medical Research Institute) was determined. […]

The nature of data set [3]: Iron status and haematological parameters of mice fed iron diets. The following applies: C57BL/6 male mice, diet 50 mg/kg iron for two weeks. Here is the method: as §1, §4
Faecal samples were then collected from each mouse at eight weeks of age (i.e. two weeks with diets containing iron), the mice sacrificed and the tissues collected for analysis. Liver and serum samples were collected from each animal after euthanasia and stored at −80° C. Haematological parameters were evaluated immediately after euthanasia using a “Coulter Ac-T diff Hematology Analyzer” (Beckman Coulter, Gladesville, NSW, Australia). […] For the analysis of iron and haematological parameters, the statistical differences between the groups were calculated using the unidirectional ANOVA followed by the Tukey post-hoc test for the groups with equal variance or by the Games-Howell post-hoc test for those with unequal variance. Significant differences in variance were identified using the Levene test. DNA was extracted from the faecal samples and the microbial profile (QIMR Berghofer Medical Research Institute) was determined.
• ID: control group, maintained on iron deficient diet (about 1 mg/kg iron). • FS: group fed with diet containing 50 mg/kg of iron in the form of ferrous sulfate (FS abbreviation for ferrous sulfate)—Fe(II). • SI: group fed with diet containing 50 mg/kg of iron in the form of Sucrosomial® iron (SI abbreviation for sucrosomial iron)—Fe(III).
After being sacrificed at the age of eight weeks, iron levels in the liver and in the serum, as well as the haematological parameters of mice of the three groups under analysis (ID, FS and SI) were examined.

The text below walks through data of patent US20240139235A1, “IRON(III) FORMULATIONS FOR THE TREATMENT OF GASTROINTESTINAL INFLAMMATION” (PHARMANUTRA S.P.A., priority 2021, published 2024).

In the case of ferrous sulfate, the “Shannon index (alpha diversity) per group” value with gut microbiome of mice (unpaired comparison of groups (FIG. 4A)) is listed as “lower”. The “beta diversity (overall microbial composition, PCoA)” value in the data set with gut microbiome of mice (vs iron deficient diet (FIG. 3)) is listed as “able to be distinguished from samples taken from mice on iron-deficient diets”. The “abundance of phylum Bacteroidota, change vs baseline” value in the data set with Bacteroidota is reported as “significantly reduced”. Besides, in data set [1], the “Lactobacillus at the genus level, change vs baseline” value is “no similar decrease”. For the same substance, the body weight result in data set [2] is listed as “no significant differences”. In data set [3] (Sucrosomial iron vs ferrous sulfate (FIG. 1B)), the “iron concentration in the liver” value is “no significant differences”. Further, the serum iron levels entry in data set [3] (Sucrosomial iron vs ferrous sulfate (FIG. 1C)) is reported as “no significant differences”. Also, the transferrin saturation result in data set [3] (Sucrosomial iron vs ferrous sulfate (FIG. 1D)) was “no significant differences”. Also, the “red blood cell count” value in data set [3] (Sucrosomial iron vs ferrous sulfate (FIG. 2A)) is recorded as “no significant differences”. Besides, in data set [3] (Sucrosomial iron vs ferrous sulfate (FIG. 2B)), the haemoglobin entry is “no significant differences”. Further, the haematocrit result in data set [3] (Sucrosomial iron vs ferrous sulfate (FIG. 2C)) was “no significant differences”. In addition, the mean corpuscular volume entry in data set [3] (Sucrosomial iron vs ferrous sulfate (FIG. 2D)) is given as “no significant differences”.
